From PubChem BioAssay (NCI)
“And” between values parts separate entries of the source, which are not always exact repeats. Identical values can stand only once.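 Exposure lasted 48 hours, with cells grown in 96-well plates and compounds tested at five concentrations. GI50 = concentration required for 50% inhibition of growth. TGI is the concentration that stops growth completely.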 *1 amine or outer side, *2 acyl side, *3 side chain or, on linkers, in order; H or OH if unused. Where a SMILES comes first, the peptide text is derived from it. CO = O=C([*:1])[*:2]

Tests used:
Test in all cases: NCI anticancer screen, dose series, 48 h
[1] = test system: SK-MEL-28 melanoma
[2] = test system: SNB-19 CNS
[3] = test system: OVCAR-5 ovarian
[4] = test system: SK-MEL-5 melanoma
[5] = test system: OVCAR-3 ovarian
[6] = test system: HCT-116 colon
[7] = test system: A549 NSCLC
[8] = test system: NCI-H226 lung
[9] = test system: NCI/ADR-RES ovarian
[10] = test system: SN12C renal

Structure (SMILES)	GI50 [1]	TGI [1]	GI50 [2]	TGI [2]	GI50 [3]	TGI [3]	GI50 [4]	TGI [4]	GI50 [5]	TGI [5]	GI50 [6] [µM]	TGI [6] [µM]	GI50 [7]	TGI [7]	GI50 [8]	TGI [8]	GI50 [9]	TGI [9]	GI50 [10] [µM]	TGI [10] [µM]
Cc1cc(Nc2ncc(Cl)c(Nc3ccccc3S(=O)(=O)C(C)C)n2)c(OC(C)C)cc1C1CCNCC1	1.22 µM	2.47 µM	1.73 µM	3.14 µM	1.14 µM and 0.714 µM and 0.644 µM	2.38 µM and 2.13 µM and 2.15 µM	1.4 µM	2.73 µM	1.61 µM and 1.37 µM	3.01 µM and 2.66 µM	1.24	2.62	1.34 µM	2.69 µM	1.29 µM and 1.56 µM and 1.7 µM	3.1 µM and 3.95 µM and 4.25 µM	1.52 µM	3.4 µM	1.76	3.29
Cc1cc(Nc2nc(N3CCOCC3)nc3ccccc23)n[nH]1	20.4 µM	> 100 µM	26 µM	> 100 µM	25.4 µM	> 100 µM	18.8 µM	> 100 µM	11.5 µM	> 100 µM	3.64	27	5.2 µM	> 100 µM	4.13 µM	45.2 µM	18.2 µM	> 100 µM	4.23	> 100
Nc1nc(F)nc2c1ncn2C1OC(COP(=O)(O)O)C(O)C1O (stereo not given)	–	755 µM	–	1000 µM	–	617 µM	–	406 µM	–	546 µM	–	325	–	511 µM	–	599 µM	–	106 µM	–	145
Cc1cc2c(cc1C)[n+](=O)c(C(=O)c1cccs1)c(C(F)(F)F)n2[O-]	8.83 µM and 12.3 µM	28.9 µM and 46.2 µM	4.61 µM and 7.76 µM	50 µM and 52 µM	16.7 µM and 4.47 µM	50 µM and 17.4 µM	0.724 µM and 1.3 µM	1.78 µM and 2.8 µM	1.44 µM and 0.744 µM	9.78 µM and 4.34 µM	5.2	26.7	3.27 µM and 5.68 µM	50 µM and 21.5 µM	4.06 µM	50 µM	6.4 µM and 3.28 µM	18.6 µM and 27.2 µM	1.31	6.59
COc1ccc2c(c1)C(=O)c1c-2c(N2CCN(C(=O)CN(C)C)CC2)nc2ccccc12	1.29 µM	3.16 µM	16.6 µM	35.9 µM	28.8 µM	67.3 µM	18.2 µM	34.6 µM	19.5 µM	58.6 µM	11.6	26.3	13.8 µM	37 µM	35.7 µM	> 100 µM	19.7 µM	57.1 µM	13	27.9
C=C1C(=O)O[C@H]2[C@H]1CC/C(COC(=O)N[C@@H](Cc1c[nH]c3ccccc13)C(=O)OC)=C\CC[C@@]1(C)O[C@@H]21	1.66 µM	3.53 µM	2.48 µM	7.52 µM	2.02 µM	4.92 µM	1.68 µM	3.26 µM	1.24 µM	2.69 µM	1.25	2.79	9.94 µM	24.3 µM	15.4 µM	33.5 µM	6.78 µM	27.3 µM	1.37	3.1
Cc1ccc(-c2nc3nc(-c4ccc(Cl)cc4)nc(N4CCCNCC4)c3o2)cc1	1.73 µM	3.13 µM	1.7 µM	3.12 µM	1.53 µM	2.87 µM	1.82 µM	3.33 µM	1.94 µM	3.81 µM	1.53	2.94	1.91 µM	3.83 µM	1.78 µM	3.87 µM	2.02 µM	3.95 µM	1.66	3.15
OCC1OC(O)C(N=Cc2ccc3c(c2)OCO3)C(O)C1O (stereo not given)	–	> 100 µM	–	> 100 µM	–	> 100 µM	–	> 100 µM	–	> 100 µM	–	> 100	–	> 100 µM	–	> 100 µM	–	> 100 µM	–	> 100
c1cncc(-c2cc(-c3cc(-c4cccnc4)n[nH]3)[nH]n2)c1	–	> 100 µM	–	> 100 µM	–	> 100 µM	–	> 100 µM	–	> 100 µM	–	> 100	–	> 100 µM	–	> 100 µM	–	> 100 µM	–	> 100
CC(C)C(NC(=O)C(CCCN=C(N)N)NC(=O)NC(Cc1ccccc1)C(=O)O)C(=O)NC(C=O)CCCN=C(N)N (stereo not drawn) ({Phe-CO}-Arg-Val-Arg-aldehyde; configuration not given here)	> 5 µM	> 5 µM	> 5 µM	> 5 µM	> 5 µM	> 5 µM	> 5 µM	> 5 µM	> 5 µM	> 5 µM	> 5	> 5	> 5 µM	> 5 µM	> 5 µM	> 5 µM	> 5 µM	> 5 µM	> 5	> 5
CNC(=O)c1ccc(Nc2nc(OC3CCCC3)c3c(-c4ccc5nc(C)oc5c4)c[nH]c3n2)c(OC)c1	41.4 µM	> 100 µM	10 µM	> 100 µM	64.2 µM	> 100 µM	2.12 µM	> 100 µM	0.427 µM	> 44.6 µM	0.409	> 60.5	0.201 µM	> 100 µM	9.04 µM	> 100 µM	1.71 µM	> 100 µM	1.32	> 100
CN(C)c1ccc2[nH]c(O)c(C=Nc3ccc(S(N)(=O)=O)cc3)c2c1	> 25 µM	> 25 µM	> 25 µM	> 25 µM	> 25 µM	> 25 µM	> 25 µM	> 25 µM	> 25 µM	> 25 µM	20.3	> 25	> 25 µM	> 25 µM	> 25 µM	> 25 µM	> 25 µM	> 25 µM	> 25	> 25
Cc1cc(S(=O)(=O)/N=C(\N)n2nc(C)c(C)c2C)c(SCc2ccccc2)cc1Cl	> 100 µM	> 100 µM	> 100 µM	> 100 µM	> 100 µM	> 100 µM	5.65 µM	> 100 µM	46.4 µM	> 100 µM	38.5	> 100	14 µM	> 100 µM	> 100 µM	> 100 µM	9.22 µM	> 100 µM	> 100	> 100
O=C1C=CC(=O)N1c1ccc2c(c1)Cc1cc(NC(=O)C(F)(F)F)ccc1-2	–	34.4 µM	–	> 65.5 µM	–	31.8 µM	–	> 100 µM	–	31.2 µM	–	22.6	–	34.5 µM	–	17.6 µM	–	> 75.7 µM	–	32.1
C[C@@H](Oc1cc(-c2cnn(C3CC4(CCNCC4)C3)c2)cnc1N)c1c(F)ccc(Cl)c1Cl	1.55 µM	3.2 µM	4.29 µM	18.1 µM	1.39 µM	6.65 µM	1.47 µM	2.85 µM	1.83 µM	5.19 µM	0.671	2.65	1.04 µM	3.63 µM	2.51 µM	17.5 µM	6.61 µM	21.2 µM	1.49	7.1
O=C(Nc1nc(-c2ccc(Cl)cc2)cs1)c1ccc(O)c(O)c1	3.63 µM	20 µM	3.82 µM	19.7 µM	14.7 µM	36.1 µM	2.98 µM	12 µM	5.03 µM	18.2 µM	3.71	14.3	2.91 µM	14.3 µM	4.65 µM	19.7 µM	3.89 µM	20.3 µM	3.67	15.7
O=C(Nc1cccc(-c2nc3ccccc3[nH]2)c1)c1cccc(NC(=O)c2ccco2)c1	1.75 µM	3.31 µM	2.86 µM	8.19 µM	3.1 µM	11.1 µM	1.89 µM	4.1 µM	1.97 µM	3.39 µM	1.74	3.11	1.88 µM	3.95 µM	2.72 µM	15.9 µM	7.92 µM	66 µM	2.07	4.88
O=C(/C=C/c1ccc2c(c1)OCO2)c1ccccc1	19.5 µM	41.4 µM	15.1 µM	32.1 µM	16.2 µM	36.8 µM	15.6 µM	29.4 µM	4.71 µM	17.9 µM	3.74	14.1	18.7 µM	49 µM	23.4 µM	78.5 µM	20.6 µM	62.3 µM	18.6	40.6
CN1CCN(Cc2ccc(NC(=O)c3[nH]ncc3Nc3ccnc4ccsc34)cc2)CC1	5.23 µM	18.4 µM	2.81 µM	20.2 µM	4.08 µM	14.7 µM	2.48 µM	11.5 µM	2.34 µM	11.5 µM	1.51	11.7	3.04 µM	14.5 µM	2.35 µM	13.4 µM	15.7 µM	> 100 µM	2.78	14.4
CC(=O)NC(Cc1c[nH]c2ccccc12)C(=O)O (stereo not given)	–	> 100 µM	–	> 100 µM	–	> 100 µM	–	> 100 µM	–	> 100 µM	–	> 100	–	> 100 µM	–	> 100 µM	–	> 100 µM	–	> 100
COc1cc2c3c(n(CCCn4ccnc4)c(=O)c2cc1OC)-c1ccccc1C3=O	1.59 µM	> 100 µM	< 0.0285 µM	> 69 µM	0.26 µM	1.25 µM	< 0.0333 µM	0.0861 µM	< 0.0471 µM	0.484 µM	< 0.0135	0.153	< 0.0337 µM	0.413 µM	0.05 µM	0.983 µM	0.223 µM	1.86 µM	< 0.0467	5.4
O=C(CSc1nc2sc3c(c2c(=O)n1-c1ccccc1)CCCCC3)N/N=C/c1ccc(F)cc1	3.24 µM	13.1 µM	3.45 µM	13.2 µM	3.76 µM	20.6 µM	2.93 µM	9.56 µM	1.78 µM	4.07 µM	2.34	12	2.48 µM	10.8 µM	2.09 µM	4.84 µM	2.25 µM	6.72 µM	1.99	6.9
CCOC(=O)c1ccc(C(O)CC(=O)OC(C)(C)C)[nH]1 (stereo not given)	35.7 µM	> 100 µM	42.9 µM	> 100 µM	32.3 µM	> 100 µM	27.3 µM	89 µM	28.5 µM	68.2 µM	23.2	68.4	32.1 µM	> 100 µM	94.1 µM	> 100 µM	41 µM	> 100 µM	17.4	62.4
COc1cc(/C=C/C(=O)CC(=O)/C=C/c2ccc(OC(=O)CCNC34CC5CC(CC(C5)C3)C4)c(OC)c2)ccc1OC(=O)CCNC12CC3CC(CC(C3)C1)C2	3.79 µM	17.2 µM	4.65 µM	18.4 µM	4.34 µM	16.8 µM	3.28 µM	12.6 µM	4.09 µM	21.9 µM	2.37	9.9	10.3 µM	28.5 µM	11.8 µM	30.5 µM	8 µM	49.9 µM	3.32	17.8
